Measured values from paper PMC5913751 (Peptides, 2018).
Like-named read-outs stand apart in the source and are kept apart here. Where no end group is shown, it is not given here.

Columns and labels:
sheep erythrocytes = experiment: Hemolysis assay; type: cell-based; details: sheep erythrocytes in PBS, 37°C 18–24 hours, absorbance 567 nm
Bacilius subtilis = details: cited from earlier work
E.coli = details: cited from earlier work
S.aureus = details: cited from earlier work
Fungus = details: cited from earlier work
[1] = test system: gram-negative bacteria, mostly E.coli and P. aeruginosa; details: range stated jointly; ref Table 5.0 ([28], [30]–[32]); cited from earlier work
P.aeruginosa = details: cited from earlier work
R. solani Khun = details: against R. solani Khun; ref [34]; cited from earlier work

CC[C@H](C)[C@H](NC(=O)CN)C(=O)NCC(=O)N[C@@H](C)C(=O)N[C@H](C(=O)N[C@@H](CC(C)C)C(=O)N[C@@H](CCCCN)C(=O)N[C@H](C(=O)N[C@@H](CC(C)C)C(=O)N[C@H](C(=O)N[C@H](C(=O)NCC(=O)N[C@@H](CC(C)C)C(=O)N1CCC[C@H]1C(=O)N[C@@H](C)C(=O)N[C@@H](CC(C)C)C(=O)N[C@H](C(=O)N[C@@H](CO)C(=O)N[C@@H](Cc1c[nH]c2ccccc12)C(=O)N[C@H](C(=O)N[C@@H](CCCCN)C(=O)N[C@@H](CCCNC(=N)N)C(=O)N[C@@H](CCCCN)C(=O)N[C@@H](CCCNC(=N)N)C(=O)N[C@@H](CCC(N)=O)C(=O)N[C@@H](CCC(N)=O)C(N)=O)[C@@H](C)CC)[C@@H](C)CC)[C@@H](C)O)[C@@H](C)O)C(C)C)C(C)C [Melittin]
concentration at which RBCs are lysed (sheep erythrocytes): ≥ 12500 ng/mL

Bactrocerin-1
MIC values Bacilius subtilis (Bacilius subtilis; ref [37]): 13.0 µg/mL | MIC values E.coli (E.coli; ref [37]): >232.5 µg/mL | MIC values S.aureus (S.aureus; ref [37]): 6.5 µg/mL | MIC values Fungus (Fungus; ref [37]): 26.0 to 104.7 µg/mL

Cecropin A (KWKLFKKIEKVGQNIRDGIIKAGPAVAVVGQATQIAK; ends and bridges not checked; UniProt P01507 27-63, looked up)
MIC range against different strains of gram-negative bacteria [1]: 2 to 20 µg/mL | MIC values E.coli (E.coli; ref [28]): 2.5 µg/mL | MIC values P.aeruginosa (P.aeruginosa; ref [28]): 2.5 µg/mL

Cecropin B (KWKVFKKIEKMGRNIRNGIVKAGPAIAVLGEAKAL; ends and bridges not checked; UniProt P01508 27-61, looked up)
MIC range against different strains of gram-negative bacteria [1]: 2 to 20 µg/mL | MIC values E.coli (E.coli; ref [28]): 2.5 µg/mL | MIC values E.coli (E.coli; ref [30]): 2 µg/mL | MIC values E.coli (E.coli; ref [31]): 16 µg/mL | MIC values S.aureus (S.aureus; ref [31]): >128 µg/mL | MIC values P.aeruginosa (P.aeruginosa; ref [28]): 2.5 µg/mL | MIC values P.aeruginosa (P.aeruginosa; ref [30]): >100 µg/mL

Cecropin P1
MIC range against different strains of gram-negative bacteria [1]: 2 to 20 µg/mL | MIC values E.coli (E.coli; ref [32]): 0.12 to 4 µg/mL | MIC values P.aeruginosa (P.aeruginosa; ref [32]): 4 to 64 µg/mL

Galleria defensin
MIC values Fungus (Fungus; ref [38]): 14.7 to 29.5 µg/mL

Oh-defensin
MIC values E.coli (E.coli; ref [39]): 1.3 µg/mL | MIC values S.aureus (S.aureus; ref [39]): 1.25 µg/mL | MIC values Fungus (Fungus; ref [39]): 1.3 µg/mL

Sapecin
MIC values Bacilius subtilis (Bacilius subtilis; ref [36]): 20 to 39 µg/mL | MIC values E.coli (E.coli; ref [36]): >78.0 µg/mL | MIC values S.aureus (S.aureus; ref [36]): 5.0 µg/mL

Trx-stomoxynZH1
MIC values E.coli (E.coli; ref [34]): 15 to 30 µg/mL | MIC values Fungus (R. solani Khun): > 98 against R. solani Khun μg/ml | MIC values S.aureus (S.aureus; ref [34]): 27 to 54 µg/mL
